Laboratory results: article PMC5218480 (PLoS ONE, 2017)

Test system: MV-4-11 cells
Assay: Gene expression microarray analysis (Affymetrix PrimeView) and GSEA
Assay type: cell-based, human
Parameters: RFU PODN (11730768_x_at) / Fold change /veh PODN (11730768_x_at) / RFU LINC00158 (11744669_a_at) / Fold change /veh LINC00158 (11744669_a_at) / RFU DUSP10 (11751237_a_at) / Fold change /veh DUSP10 (11751237_a_at) / RFU ID3 (11757404_x_at) / Fold change /veh ID3 (11757404_x_at) / RFU PLEKHG5 (11737974_s_at) / Fold change /veh PLEKHG5 (11737974_s_at) / RFU LRRC4B (11730491_at) / Fold change /veh LRRC4B (11730491_at) / RFU GIMAP4 (11747438_a_at) / Fold change /veh GIMAP4 (11747438_a_at) / RFU KRT8 (11758183_x_at) / Fold change /veh KRT8 (11758183_x_at) / RFU CNN1 (11734310_a_at) / Fold change /veh CNN1 (11734310_a_at) / RFU VPS37D (11726825_at) / Fold change /veh VPS37D (11726825_at) / RFU C10orf10 (11716522_x_at) / Fold change /veh C10orf10 (11716522_x_at) / RFU KIR2DL2 /// KIR2DL4 /// KIR2DL5A /// KIR2DL5B /// KIR2DS1 /// KIR2DS2 /// KIR2DS3 /// KIR2DS4 /// KIR3DL3 /// KIR3DL3 /// KIR3DS1 (11738374_at) / Fold change /veh KIR2DL2 /// KIR2DL4 /// KIR2DL5A /// KIR2DL5B /// KIR2DS1 /// KIR2DS2 /// KIR2DS3 /// KIR2DS4 /// KIR3DL3 /// KIR3DL3 /// KIR3DS1 (11738374_at) / RFU C1QL1 (11718748_at) / Fold change /veh C1QL1 (11718748_at) / RFU TMPRSS4 (11747572_a_at) / Fold change /veh TMPRSS4 (11747572_a_at) / RFU HAMP (11756126_x_at) / Fold change /veh HAMP (11756126_x_at) / RFU RNFT2 (11725882_a_at) / Fold change /veh RNFT2 (11725882_a_at) / RFU NR4A2 (11747474_a_at) / Fold change /veh NR4A2 (11747474_a_at) / RFU ABCC12 (11746883_a_at) / Fold change /veh ABCC12 (11746883_a_at) / RFU TMEM136 (11760407_x_at) / Fold change /veh TMEM136 (11760407_x_at) / RFU CLDN22 /// WWC2 (11732394_at) / Fold change /veh CLDN22 /// WWC2 (11732394_at) / RFU HLA-DPB1 (11760878_x_at) / Fold change /veh HLA-DPB1 (11760878_x_at) / RFU SPINT1 (11716480_a_at) / Fold change /veh SPINT1 (11716480_a_at) / RFU GAP43 (11754022_s_at) / Fold change /veh GAP43 (11754022_s_at) / RFU A4GNT (11735810_at) / Fold change /veh A4GNT (11735810_at) / RFU PRB3 (11715151_x_at) / Fold change /veh PRB3 (11715151_x_at) / RFU TUBB4B (11761932_at) / Fold change /veh TUBB4B (11761932_at) / RFU CAPN14 (11732068_a_at) / Fold change /veh CAPN14 (11732068_a_at) / RFU TMCC2 (11721928_a_at) / Fold change /veh TMCC2 (11721928_a_at) / RFU IRGQ (11745062_a_at) / Fold change /veh IRGQ (11745062_a_at) / RFU FAM174B (11720279_a_at) / Fold change /veh FAM174B (11720279_a_at) / RFU TMPRSS4 (11748680_a_at) / Fold change /veh TMPRSS4 (11748680_a_at) / RFU FAM212B (11763350_a_at) / Fold change /veh FAM212B (11763350_a_at) / RFU PLEKHG5 (11743358_a_at) / Fold change /veh PLEKHG5 (11743358_a_at) / RFU ZSCAN30 (11745921_a_at) / Fold change /veh ZSCAN30 (11745921_a_at) / RFU CMKLR1 (11741424_a_at) / Fold change /veh CMKLR1 (11741424_a_at) / RFU LOC101060620 /// MAPK8IP1 (11723275_at) / Fold change /veh LOC101060620 /// MAPK8IP1 (11723275_at) / RFU SPTSSB (11747773_x_at) / Fold change /veh SPTSSB (11747773_x_at) / RFU PRSS12 (11739890_at) / Fold change /veh PRSS12 (11739890_at) / RFU BIN1 (11741810_x_at) / Fold change /veh BIN1 (11741810_x_at) / RFU WNT11 (11732464_a_at) / Fold change /veh WNT11 (11732464_a_at) / RFU C10orf10 (11716521_a_at) / Fold change /veh C10orf10 (11716521_a_at) / RFU C5orf56 (11738089_at) / Fold change /veh C5orf56 (11738089_at) / RFU CYB561 (11721691_x_at) / Fold change /veh CYB561 (11721691_x_at) / RFU ANKRD19P (11752326_a_at) / Fold change /veh ANKRD19P (11752326_a_at) / RFU OR2T12 /// OR2T33 /// OR2T8 (11738714_s_at) / Fold change /veh OR2T12 /// OR2T33 /// OR2T8 (11738714_s_at) / RFU VCAN (11748164_a_at) / Fold change /veh VCAN (11748164_a_at) / RFU JSRP1 (11732532_at) / Fold change /veh JSRP1 (11732532_at) / RFU KRTAP10-11 (11738290_x_at) / Fold change /veh KRTAP10-11 (11738290_x_at) / RFU MYO3A (11730013_a_at) / Fold change /veh MYO3A (11730013_a_at) / RFU EBF3 (11725865_a_at) / Fold change /veh EBF3 (11725865_a_at) / RFU CAMK2N1 (11719241_x_at) / Fold change /veh CAMK2N1 (11719241_x_at) / RFU C5orf56 (11738088_a_at) / Fold change /veh C5orf56 (11738088_a_at) / RFU OLFML3 (11715873_a_at) / Fold change /veh OLFML3 (11715873_a_at) / RFU LOC100653217 /// NTM (11731650_a_at) / Fold change /veh LOC100653217 /// NTM (11731650_a_at) / RFU MAPK11 (11762145_a_at) / Fold change /veh MAPK11 (11762145_a_at) / RFU FIZ1 (11724087_x_at) / Fold change /veh FIZ1 (11724087_x_at) / RFU OASL (11726364_x_at) / Fold change /veh OASL (11726364_x_at) / RFU SOX15 (11748057_x_at) / Fold change /veh SOX15 (11748057_x_at) / RFU CD79A (11719716_a_at) / Fold change /veh CD79A (11719716_a_at) / RFU HIST1H1D (11736915_at) / Fold change /veh HIST1H1D (11736915_at) / RFU CASKIN2 (11723855_a_at) / Fold change /veh CASKIN2 (11723855_a_at) / RFU LOC730098 (11760151_x_at) / Fold change /veh LOC730098 (11760151_x_at) / RFU OR4N2 (11742367_at) / Fold change /veh OR4N2 (11742367_at) / RFU PRRT2 (11749266_a_at) / Fold change /veh PRRT2 (11749266_a_at) / RFU SNX32 (11753110_a_at) / Fold change /veh SNX32 (11753110_a_at) / RFU CDHR5 (11726645_a_at) / Fold change /veh CDHR5 (11726645_a_at) / RFU RCAN1 (11760418_a_at) / Fold change /veh RCAN1 (11760418_a_at) / RFU FAM167A (11723789_a_at) / Fold change /veh FAM167A (11723789_a_at) / RFU FAM26E (11764081_at) / Fold change /veh FAM26E (11764081_at) / RFU ISYNA1 (11749810_s_at) / Fold change /veh ISYNA1 (11749810_s_at) / RFU ACY1 (11761880_at) / Fold change /veh ACY1 (11761880_at) / RFU 11764098_at / Fold change /veh 11764098_at / RFU SAMD14 (11745864_x_at) / Fold change /veh SAMD14 (11745864_x_at) / RFU NPB (11741838_a_at) / Fold change /veh NPB (11741838_a_at) / RFU TMPRSS6 (11731388_a_at) / Fold change /veh TMPRSS6 (11731388_a_at) / RFU KRTAP10-2 (11738614_at) / Fold change /veh KRTAP10-2 (11738614_at) / RFU ARHGAP8 /// PRR5-ARHGAP8 (11727945_x_at) / Fold change /veh ARHGAP8 /// PRR5-ARHGAP8 (11727945_x_at) / RFU KRTAP5-7 /// NADSYN1 (11734609_at) / Fold change /veh KRTAP5-7 /// NADSYN1 (11734609_at) / RFU RASL12 (11751679_a_at) / Fold change /veh RASL12 (11751679_a_at) / RFU CDKN2B (11736163_a_at) / Fold change /veh CDKN2B (11736163_a_at) / RFU PRF1 (11729649_at) / Fold change /veh PRF1 (11729649_at) / RFU, ZNF638 /// ZNF638-IT1 / Fold change vs veh, ZNF638 /// ZNF638-IT1 / RFU, PANK3 / Fold change vs veh, PANK3 / RFU, SH3YL1 / Fold change vs veh, SH3YL1 / RFU, ZEB2 / Fold change vs veh, ZEB2 / RFU, NRIP1 / Fold change vs veh, NRIP1 / RFU, PTTG1IP / Fold change vs veh, PTTG1IP / RFU, CAPN2 / Fold change vs veh, CAPN2 / RFU, MED14 / Fold change vs veh, MED14 / RFU, SNORA58 / Fold change vs veh, SNORA58 / RFU, C1orf63 / Fold change vs veh, C1orf63 / RFU, LRRFIP1 / Fold change vs veh, LRRFIP1 / RFU, NDUFAF7 / Fold change vs veh, NDUFAF7 / RFU, SLC12A2 / Fold change vs veh, SLC12A2 / RFU, IBTK / Fold change vs veh, IBTK / RFU, ESF1 / Fold change vs veh, ESF1 / Fold change vs veh, TMEM50B / RFU, TAOK1 / Fold change vs veh, TAOK1 / RFU, ACBD3 / Fold change vs veh, ACBD3 / RFU, TMA16 / Fold change vs veh, TMA16 / RFU, RWDD3 / Fold change vs veh, RWDD3 / RFU, BCAT1 / Fold change vs veh, BCAT1 / RFU, EDEM3 / Fold change vs veh, EDEM3 / RFU, TMEM33 / Fold change vs veh, TMEM33 / RFU, WDR75 / Fold change vs veh, WDR75 / RFU, AHCTF1 / Fold change vs veh, AHCTF1 / RFU, TFRC / Fold change vs veh, TFRC / RFU, ZDHHC17 / Fold change vs veh, ZDHHC17 / RFU, NOM1 / Fold change vs veh, NOM1 / RFU, ARL8B / Fold change vs veh, ARL8B / RFU, ZBTB11 / Fold change vs veh, ZBTB11 / RFU, TAMM41 / Fold change vs veh, TAMM41 / RFU, KIAA1704 /// LOC100996395 / Fold change vs veh, KIAA1704 /// LOC100996395 / RFU, ING1 / Fold change vs veh, ING1 / RFU, TRMT61B / Fold change vs veh, TRMT61B / RFU, FUBP3 / Fold change vs veh, FUBP3 / RFU, TP53 / Fold change vs veh, TP53 / RFU, TNKS2 / Fold change vs veh, TNKS2 / RFU, ZFP14 / Fold change vs veh, ZFP14 / RFU, ACTR2 / Fold change vs veh, ACTR2 / RFU, PPP3R1 / Fold change vs veh, PPP3R1 / RFU, PIK3R1 / Fold change vs veh, PIK3R1 / RFU, HNRNPA1 / Fold change vs veh, HNRNPA1 / RFU, RNF170 / Fold change vs veh, RNF170 / RFU, ZNF28 / Fold change vs veh, ZNF28 / RFU, RNGTT / Fold change vs veh, RNGTT / RFU, OGT / Fold change vs veh, OGT / RFU, BRD1 / Fold change vs veh, BRD1 / RFU, MARS / Fold change vs veh, MARS / RFU, ZNF655 / Fold change vs veh, ZNF655 / RFU, FAHD1 / Fold change vs veh, FAHD1 / RFU, BDP1 / Fold change vs veh, BDP1 / RFU, LRRCC1 / Fold change vs veh, LRRCC1 / RFU, ARID1A / Fold change vs veh, ARID1A / RFU, ZNF146 / Fold change vs veh, ZNF146 / RFU, ZNF330 / Fold change vs veh, ZNF330 / RFU, GPN3 / Fold change vs veh, GPN3 / RFU, C9orf123 / Fold change vs veh, C9orf123 / RFU, N4BP2L2 / Fold change vs veh, N4BP2L2 / RFU, ARFIP1 / Fold change vs veh, ARFIP1 / RFU, FAM179B / Fold change vs veh, FAM179B / RFU, BCL10 / Fold change vs veh, BCL10 / RFU, UHRF1BP1L / Fold change vs veh, UHRF1BP1L / RFU, BET1 / Fold change vs veh, BET1 / RFU, CNOT2 / Fold change vs veh, CNOT2 / RFU, ZNF268 / Fold change vs veh, ZNF268 / Fold change vs veh, ZNF507 / RFU, DGCR2 / Fold change vs veh, DGCR2 / RFU, WDSUB1 / Fold change vs veh, WDSUB1 / Fold change vs veh, HSP90B1 /// MIR3652 / RFU, ADSS / Fold change vs veh, ADSS / RFU, GK / Fold change vs veh, GK / RFU, ZNF148 / Fold change vs veh, ZNF148 / RFU, TAF9 / Fold change vs veh, TAF9 / RFU, SLC1A5 / Fold change vs veh, SLC1A5 / RFU, SLMO2 / Fold change vs veh, SLMO2 / RFU, ABCC4 / Fold change vs veh, ABCC4 / RFU, LOC101060439 /// RAP1B / Fold change vs veh, LOC101060439 /// RAP1B / RFU, RFX7 / Fold change vs veh, RFX7 / RFU, GTPBP10 / Fold change vs veh, GTPBP10 / RFU, CNEP1R1 / Fold change vs veh, CNEP1R1 / RFU, BIVM-ERCC5 /// ERCC5 / Fold change vs veh, BIVM-ERCC5 /// ERCC5 / RFU, ILF3 / Fold change vs veh, ILF3 / RFU 11762660_at / Fold change /veh 11762660_at / RFU VCAN (11757783_s_at) / Fold change /veh VCAN (11757783_s_at) / RFU DDX43 (11728927_at) / Fold change /veh DDX43 (11728927_at) / RFU KRT8 (11758188_x_at) / Fold change /veh KRT8 (11758188_x_at) / RFU NKD1 (11759106_at) / Fold change /veh NKD1 (11759106_at) / RFU SRD5A1 (11742802_a_at) / Fold change /veh SRD5A1 (11742802_a_at) / RFU TPSAB1 /// TPSB2 (11721975_s_at) / Fold change /veh TPSAB1 /// TPSB2 (11721975_s_at) / RFU GSTM3 (11746129_a_at) / Fold change /veh GSTM3 (11746129_a_at) / RFU IL23R (11737362_x_at) / Fold change /veh IL23R (11737362_x_at) / RFU TMEM51 (11727254_a_at) / Fold change /veh TMEM51 (11727254_a_at) / RFU PIWIL2 (11732686_x_at) / Fold change /veh PIWIL2 (11732686_x_at) / RFU ORM1 (11744905_x_at) / Fold change /veh ORM1 (11744905_x_at) / RFU CCDC152 (11743942_at) / Fold change /veh CCDC152 (11743942_at) / RFU ECM1 (11717891_a_at) / Fold change /veh ECM1 (11717891_a_at) / RFU IL23R (11748794_a_at) / Fold change /veh IL23R (11748794_a_at) / RFU TNFAIP8L3 (11732012_x_at) / Fold change /veh TNFAIP8L3 (11732012_x_at) / RFU MBOAT4 (11741988_at) / Fold change /veh MBOAT4 (11741988_at) / RFU 11764193_at / Fold change /veh 11764193_at / RFU TMEM53 (11763286_at) / Fold change /veh TMEM53 (11763286_at) / RFU MAGEB2 (11727129_at) / Fold change /veh MAGEB2 (11727129_at) / RFU TMEM200A (11744735_a_at) / Fold change /veh TMEM200A (11744735_a_at) / RFU CCDC152 (11751479_a_at) / Fold change /veh CCDC152 (11751479_a_at) / RFU FAM211A (11726209_a_at) / Fold change /veh FAM211A (11726209_a_at) / RFU RGS16 (11746705_a_at) / Fold change /veh RGS16 (11746705_a_at) / RFU VCAN (11755009_s_at) / Fold change /veh VCAN (11755009_s_at) / RFU RHOB (11743442_s_at) / Fold change /veh RHOB (11743442_s_at) / RFU RGS16 (11720943_a_at) / Fold change /veh RGS16 (11720943_a_at) / RFU RGS16 (11720944_at) / Fold change /veh RGS16 (11720944_at) / RFU, VPS4B / Fold change vs veh, VPS4B / RFU, CREB1 / Fold change vs veh, CREB1 / RFU, DNAJC13 / Fold change vs veh, DNAJC13 / RFU, GNAQ / Fold change vs veh, GNAQ / RFU, CDK5R1 / Fold change vs veh, CDK5R1 / RFU, ZRANB3 / Fold change vs veh, ZRANB3 / RFU, CUL4A / Fold change vs veh, CUL4A / RFU, CCNY / Fold change vs veh, CCNY / RFU, UFL1 / Fold change vs veh, UFL1 / RFU, COG3 / Fold change vs veh, COG3 / RFU, DIAPH2 / Fold change vs veh, DIAPH2 / RFU, SKA2 / Fold change vs veh, SKA2 / RFU, AFF3 / Fold change vs veh, AFF3 / RFU, LMF1 / Fold change vs veh, LMF1 / RFU, IPO11 / Fold change vs veh, IPO11 / RFU, DFFB / Fold change vs veh, DFFB / RFU, FOXP1 / Fold change vs veh, FOXP1 / RFU, CARD8 / Fold change vs veh, CARD8 / RFU, STRN3 / Fold change vs veh, STRN3 / RFU, ADK / Fold change vs veh, ADK / RFU, RASSF2 / Fold change vs veh, RASSF2 / RFU, WIPF1 / Fold change vs veh, WIPF1 / RFU, LARP1B / Fold change vs veh, LARP1B / RFU, RASA1 / Fold change vs veh, RASA1 / RFU, RB1 / Fold change vs veh, RB1 / RFU, PPFIA1 / Fold change vs veh, PPFIA1 / RFU, MAT2A / Fold change vs veh, MAT2A / RFU, CCT5 / Fold change vs veh, CCT5 / RFU, WDR92 / Fold change vs veh, WDR92 / RFU, CUX1 / Fold change vs veh, CUX1 / RFU, TTC7A / Fold change vs veh, TTC7A / RFU, TMEM135 / Fold change vs veh, TMEM135 / RFU, DEPTOR / Fold change vs veh, DEPTOR / RFU, CPM / Fold change vs veh, CPM / RFU, DNAJB6 / Fold change vs veh, DNAJB6 / RFU, CACNA2D3 / Fold change vs veh, CACNA2D3 / RFU, DTX4 / Fold change vs veh, DTX4 / RFU, TFCP2 / Fold change vs veh, TFCP2 / RFU, GMCL1 /// GMCL1P1 / Fold change vs veh, GMCL1 /// GMCL1P1 / RFU, AEBP2 / Fold change vs veh, AEBP2 / RFU, SNHG1 /// SNORD22 /// SNORD25 /// SNORD26 /// SNORD27 /// SNORD28 /// SNORD29 /// SNORD31 / Fold change vs veh, SNHG1 /// SNORD22 /// SNORD25 /// SNORD26 /// SNORD27 /// SNORD28 /// SNORD29 /// SNORD31 / Fold change (Aza/veh), C12orf56 (ProbeSet 11735607_a_at) / Fold change (ACY-1035/veh), C12orf56 (ProbeSet 11735607_a_at) / Fold change (Aza/veh), FGFR1OP (ProbeSet 11751329_s_at) / Fold change (ACY-1035/veh), FGFR1OP (ProbeSet 11751329_s_at) / Fold change (Aza/veh), VPS36 (ProbeSet 11739960_a_at) / Fold change (ACY-1035/veh), VPS36 (ProbeSet 11739960_a_at) / RFU SYPL1 (11715823_x_at) / Fold change /veh SYPL1 (11715823_x_at) / RFU IGFBP7 (11715501_s_at) / Fold change /veh IGFBP7 (11715501_s_at) / RFU REEP3 (11722064_at) / Fold change /veh REEP3 (11722064_at) / RFU IGLL1 (11728026_x_at) / Fold change /veh IGLL1 (11728026_x_at): dose or concentration left out as unconfirmed
Conditions: ProbeSet 11738335_x_at; LIST B

With Nc1ncn([C@@H]2O[C@H](CO)[C@@H](O)[C@H]2O)c(=O)n1 [azacitidine] the “RFU, TP53” value was 77.85 RFU.
